From US20120309798A1, “Tumour Treatment Agents and Method” (Vivolux AB, priority 2009, published 2012)
pIC50: −log10 of the molar value. Like-named read-outs stand apart in the source and are kept apart here.

Experiments:
[1] = Weight gain and hematological parameters of treated mice; type: in vivo, NMRI male mice; details: single dose 760 μg/mouse s.c.
Procedure: In vivo studies. Cells from two ovarian carcinoma patients and the cell line CEM were cultured inside semi-permeable polyvinylidene fluoride fibers and assessed by the hollow fiber assay (Friberg et al., 2005; Jonsson et al., 2000). The fibers were implanted subcutaneously into NMRI male mice (Scanbur, Sollentuna Sweden), which were treated with a single dose (0.76 mg/mouse) of VLX50 subcutaneously, or vehicle only (n=animals/group). Fibers were retrieved after 6 days and cell density evaluated (FIG. 3a) using the MTT (3-[4,5-dimethylthiazol-2-yl]-2,5-diphenyltetrazolium bromide)-assay (Alley et al. 1988). The method is based on the conversion of MTT to blue formazan crystals by living cells. The formazan was extracted by DMSO as previously described (Jonsson et al. 2000), and optical density (OD) read at 570 nm. Cell density for each fiber on retrieval day was expressed as net growth, defined as (OD retrieval day—OD implantation day)/OD implantation day, i.e. the percent change in cell density in the fibers during the 6 days of in vivo experiment. The animals were observed regarding behavior and weight gain throughout the experiment. Blood samples (200 μl) were obtained through the orbital plexus after anesthetization with isofluran just before euthanasia, and analyzed for hematological parameters. Four animals were caged per cage and fed a commercial diet (Lactamin AB, Sweden), water being given ad libitum.
In vivo activity in PHTC cultures of ovarian carcinoma. Activity in vivo was determined in hollow fiber cultures of PHTC from ovarian carcinoma patients subcutaneously implanted in mice (FIG. 3a; n=8 each in test and control groups). […] There was no difference in WBC, RBC, and hemoglobin values (FIG. 3c).

[2] = tested on: AML (Acute Myelocytic Leukemia) patient tumor cells; test: FMCA, patient tumor samples, AML; type: cell-based; details: Homo sapiens
Excerpt: (§1) Cell culture. Patient tumor samples (98) and preparations (4) of normal peripheral blood mononuclear cells (PBMC), detailed in Table 1, were used to determine the activity of VLX50 and, for comparison, six other cytotoxic drugs chosen to represent different mechanistic classes.
(§2) The tumor samples were obtained by bone marrow/peripheral blood sampling, routine surgery or diagnostic biopsy. Leukemic cells and PBMCs were isolated by 1.077 g ml-1 Ficoll-Paque centrifugation (Larsson et al., 1992). Tumor tissue from solid tumor samples was minced into small pieces and tumor cells were isolated by collagenase dispersion followed by Percoll density gradient centrifugation (Csoka et al., 1994). […] Cell viability was determined by trypan blue exclusion test and the proportion of tumor cells in the preparation was judged by inspection of May-Grunvald-Giemsa stained cytospin slides (FIG. 1a). […]
(§3) Fluorometric Microculture Cytotoxicity Assay. The Fluorometric Microculture Cytotoxicity Assay, FMCA, described in detail previously (Lindhagen et al., 2008), is based on measurement of fluorescence generated from hydrolysis of fluorescein diacetate (FDA) to fluorescein by cells with intact plasma membranes. […] Quality criteria for a successful assay included a mean coefficient of variation of less than 30% in the control and a fluorescence signal in control wells of more than 5 times the blank. […]

[3] = tested on: CML (Chronic Myelocytic Leukemia) patient tumor cells; test: FMCA, patient tumor samples, CML; type: cell-based; details: Homo sapiens
Excerpt: as §1, §2, §3

Hemoglobin values [1]: no difference
RBC [1]: no difference
WBC [1]: no difference
Platelet counts ([1]; P<0.05): significant decrease
Weight gain compared to the control group ([1]; P<0.05): small but significant reduction
pIC50 ([2]; n=10, 72 h FMCA, read-out: Median IC50): 5.27
pIC50 ([2]; range over n=10 samples, read-out: IC50 Range): 4.40 to 6.17
pIC50 ([3]; n=3, 72 h FMCA, read-out: Median IC50): 5.29
pIC50 ([3]; range over n=3 samples, read-out: IC50 Range): 5.19 to 5.68
SMILES: COCCCNC(=S)N/N=C\c1ccccn1 [VLX50, N1-(3-methoxypropyl)-2-(pyridylmethylidene)-hydrazine-1-carbothioamide]
